Publication PMC3277506, “Extra-Renal Elimination of Uric Acid via Intestinal Efflux Transporter BCRP/ABCG2” (PLoS ONE, 2012)

Experiments:
hBCRP [1] = target: T1, hBCRP (Homo sapiens, UniProt Q9UNQ0); test: [14C]uric acid uptake by hBCRP-expressing membrane vesicles; type: biochemical; settings: [14C]uric acid 20 µM, 5 min, 37°C, 4 mM ATP or AMP
T1 construct: purchased GenoMembrane Inc. (Yokohama, Japan); host or cells: Sf9 cells
T1 sequence (Q9UNQ0 1-655): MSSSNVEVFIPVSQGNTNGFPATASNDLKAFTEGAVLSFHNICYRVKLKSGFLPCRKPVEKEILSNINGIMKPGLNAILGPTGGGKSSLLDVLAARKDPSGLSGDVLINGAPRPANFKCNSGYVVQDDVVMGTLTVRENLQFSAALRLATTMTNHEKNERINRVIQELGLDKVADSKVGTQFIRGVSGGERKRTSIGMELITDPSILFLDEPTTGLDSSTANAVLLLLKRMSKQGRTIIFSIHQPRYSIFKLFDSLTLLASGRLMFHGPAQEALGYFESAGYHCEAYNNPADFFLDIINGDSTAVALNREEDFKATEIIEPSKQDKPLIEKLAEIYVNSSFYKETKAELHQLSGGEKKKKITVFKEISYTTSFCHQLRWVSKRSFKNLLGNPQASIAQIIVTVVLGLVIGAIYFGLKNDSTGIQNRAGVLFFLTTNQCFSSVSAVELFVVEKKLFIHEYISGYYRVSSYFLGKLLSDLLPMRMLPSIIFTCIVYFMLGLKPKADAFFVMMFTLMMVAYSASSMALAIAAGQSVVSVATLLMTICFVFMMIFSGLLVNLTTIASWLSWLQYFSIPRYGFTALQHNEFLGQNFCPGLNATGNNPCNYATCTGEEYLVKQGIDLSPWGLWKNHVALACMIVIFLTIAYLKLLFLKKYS
Experimental: (§1) hBCRP/rBcrp, hMRP2/rMrp2, or hMDR1-expressing membrane vesicles prepared from Sf9 cells were purchased from GenoMembrane Inc. (Yokohama, Japan). Uptake experiments were conducted as described previously. Briefly, after a pre-incubation for 5 min at 37°C, membrane vesicles (50 µg protein/50 µL final reaction volume) were incubated for 5 min at 37°C in the presence of 4 mM ATP or AMP in assay buffer (1 M KCl, 1 M MgCl2, and 100 mM MOPS-Tris, pH 7.0) containing [^14C]uric acid (1 µCi/mL). The uptake reaction was terminated by adding 1 mL ice-cold washing buffer (1 M KCl, and 100 mM MOPS-Tris, pH 7.0) to the membrane solution, and the mixture was rapidly filtered through a nitrocellulose filter (0.45 µm pore size, Millipore, Bedford, MA). The filters were washed twice with 5 mL ice-cold washing buffer. The filters were dried and dissolved in Clearsol-I for quantitation of radioactivity.

rMrp2 = target: T2, rMrp2 (Rattus norvegicus, UniProt Q63120); test: [14C]uric acid uptake by rMrp2-expressing membrane vesicles; type: biochemical; settings: [14C]uric acid 20 µM, 5 min, 37°C, 4 mM ATP or AMP
T2 construct: purchased GenoMembrane Inc. (Yokohama, Japan); host or cells: Sf9 cells
Experimental: as §1

hMRP2 = target: T3, hMRP2 (Homo sapiens, UniProt Q92887); test: [14C]uric acid uptake by hMRP2-expressing membrane vesicles; type: biochemical; settings: [14C]uric acid 20 µM, 5 min, 37°C, 4 mM ATP or AMP
T3 construct: purchased GenoMembrane Inc. (Yokohama, Japan); host or cells: Sf9 cells
Experimental: as §1

hMDR1 = target: T4, hMDR1 (Homo sapiens, UniProt P08183); test: [14C]uric acid uptake by hMDR1-expressing membrane vesicles; type: biochemical; settings: [14C]uric acid 20 µM, 5 min, 37°C, 4 mM ATP or AMP
T4 construct: purchased GenoMembrane Inc. (Yokohama, Japan); host or cells: Sf9 cells
Experimental: as §1

[2] = Plasma uric acid, intestinal and renal clearance in oxonate-treated wild-type and Bcrp1 knockout mice; type: in vivo; settings: for Intestinal secretory clearance of endogenous uric acid / Renal clearance of endogenous uric acid: oxonate-treated; for Intestinal secretory clearance of endogenous uric acid: ileum closed loop; for Renal clearance of endogenous uric acid: metabolic cages
Experimental: Male Wistar rats (280±30 g body weight) used in the present study were treated with potassium oxonate, a uric acid oxidase (uricase) inhibitor. Oxonate-treated rats were established as described previously, [48]. Briefly, rats were anesthetized with 50% urethane (2 mL/kg) and infused with 0.9% NaCl, 0.5% oxonate and 4% mannitol solution from the femoral vein at the flow rate of 3 mL/hr. As a bolus, 0.9% NaCl, 1.5% oxonate and 4% mannitol solution was administered from the jugular vein at 6 mL/kg. After equilibration for 80 min, blood, urine and bile samples were collected at 20-min intervals. When [^14C]uric acid (2 µCi/rat) was used, it was intravenously injected from the jugular vein after oxonate treatment for 80 min. In order to suppress the uricolysis of [^14C]uric acid by intestinal flora, animals received orally non-absorbed antibiotics, polymyxin B, kanamycin, and vancomycin at daily doses of 50, 50 and 20 mg/kg, respectively, for 7 days before this animal study. Urine and bile were collected at 20-min intervals, and blood samples were drawn at 1, 5, 10, 20, 40, 60, 80, 100 and 120 min. Urine and bile were collected from bladder and bile ducts, respectively, and blood from the jugular vein. In mice, urine was collected for 24 hours by using metabolic cages (Natsume, Tokyo, Japan).
Mice were treated with oxonate (intraperitoneal injection of 200 mg/kg oxonate in 1% arabic gum solution) at 1 hr before injection of PB solution into the intestinal loop. Blood was withdrawn from the jugular vein at 1, 30 and 60 min. At 60 min, the intestinal luminal content was collected for measurement of intestinally secreted uric acid.
The following equation was used to calculate intestinal secretory clearance (µL/min/cm loop) and estimated total intestinal secretory clearance (CLintestine, estimated) (mL/min): [drawing 1] [drawing 2] [drawing 3] where A is the amount of uric acid secreted into the intestinal lumen of each loop for 60 min, L is the length of the intestine, and AUC is area under the plasma concentration-time curve.

[3] = Bidirectional transcellular transport of [14C]uric acid in Caco-2 cells; type: in vitro ADME, human; settings: human, Control (no inhibitor)
Experimental: Caco-2 cells were obtained from the American Type Culture Collection (Rockville, MD). Caco-2 cells were cultured in Dulbecco's modified Eagle's medium (D-MEM) (Invitrogen, Carlsbad, CA) supplemented with 10% (v/v) fetal bovine serum (Invitrogen), 100 units/mL benzylpenicillin, 100 µg/mL streptomycin, 1% (v/v) MEM non-essential amino acid solution (Invitrogen) at 37°C under an atmosphere of 5% CO2 in air. For bidirectional transport studies, Caco-2 cells were cultured on Transwell filter membrane inserts (BD Falcon, surface area 0.9 cm^2 and pore size 3 µm) at a density of 6.4×10^4 cells/cm^2 for 21 days before use for each experiment. […] Inhibitor was added to only apical side. Transport of [^14C]uric acid was measured in two directions, namely apical (AP)-to-basal (BL) and BL-to-AP directions. An aliquot of transport buffer was obtained from the donor side at 5 min for measurement of initial concentration, and from the receiver side at 30, 60, 90 and 120 min. Transport studies were performed at 37°C and pH 7.4.
The apparent permeability (Papp, cm/sec) of [^14C]uric acid across the cell monolayer was calculated using the following equation: [drawing 4] where Q is the amount of [^14C]uric acid transported over time t. Cd is the initial concentration in the donor side and A is the surface area of membrane.

hBCRP [4] = target: T1, hBCRP; design: method as in PMID 20368174; settings: read-out: Km of uric acid to hBCRP; cited from earlier work

T4 sequence (P08183 whole entry): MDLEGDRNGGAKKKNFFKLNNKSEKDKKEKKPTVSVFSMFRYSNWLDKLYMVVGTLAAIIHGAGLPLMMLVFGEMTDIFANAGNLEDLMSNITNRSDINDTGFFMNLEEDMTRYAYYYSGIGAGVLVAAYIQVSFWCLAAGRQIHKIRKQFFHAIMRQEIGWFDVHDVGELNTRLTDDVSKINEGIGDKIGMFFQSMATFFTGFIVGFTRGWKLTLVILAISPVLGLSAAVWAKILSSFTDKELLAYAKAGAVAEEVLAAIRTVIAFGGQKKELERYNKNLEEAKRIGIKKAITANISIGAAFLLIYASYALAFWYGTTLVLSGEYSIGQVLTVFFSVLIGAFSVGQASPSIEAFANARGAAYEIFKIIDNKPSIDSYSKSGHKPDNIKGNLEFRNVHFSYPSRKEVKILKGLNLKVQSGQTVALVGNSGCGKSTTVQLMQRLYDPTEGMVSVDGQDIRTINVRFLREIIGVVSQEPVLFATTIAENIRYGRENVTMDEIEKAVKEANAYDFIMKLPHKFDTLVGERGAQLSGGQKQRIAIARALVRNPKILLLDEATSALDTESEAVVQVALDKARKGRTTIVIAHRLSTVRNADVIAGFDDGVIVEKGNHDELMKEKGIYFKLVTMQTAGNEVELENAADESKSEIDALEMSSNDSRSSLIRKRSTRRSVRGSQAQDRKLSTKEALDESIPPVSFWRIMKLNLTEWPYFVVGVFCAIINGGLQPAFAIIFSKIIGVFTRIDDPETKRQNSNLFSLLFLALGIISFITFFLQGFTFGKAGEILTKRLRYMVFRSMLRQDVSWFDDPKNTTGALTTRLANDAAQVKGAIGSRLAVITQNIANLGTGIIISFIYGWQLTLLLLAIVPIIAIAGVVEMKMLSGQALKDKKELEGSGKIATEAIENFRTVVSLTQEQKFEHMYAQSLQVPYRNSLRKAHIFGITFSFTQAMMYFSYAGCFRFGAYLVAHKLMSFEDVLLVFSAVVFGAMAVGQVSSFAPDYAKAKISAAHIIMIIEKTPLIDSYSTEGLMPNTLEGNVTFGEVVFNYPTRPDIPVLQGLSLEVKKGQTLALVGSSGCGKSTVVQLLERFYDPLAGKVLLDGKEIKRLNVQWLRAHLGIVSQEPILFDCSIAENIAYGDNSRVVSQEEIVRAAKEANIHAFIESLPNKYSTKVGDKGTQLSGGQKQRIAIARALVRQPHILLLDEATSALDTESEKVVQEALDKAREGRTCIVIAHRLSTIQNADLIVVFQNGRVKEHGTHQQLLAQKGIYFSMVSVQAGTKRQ
T2 sequence (Q63120 whole entry): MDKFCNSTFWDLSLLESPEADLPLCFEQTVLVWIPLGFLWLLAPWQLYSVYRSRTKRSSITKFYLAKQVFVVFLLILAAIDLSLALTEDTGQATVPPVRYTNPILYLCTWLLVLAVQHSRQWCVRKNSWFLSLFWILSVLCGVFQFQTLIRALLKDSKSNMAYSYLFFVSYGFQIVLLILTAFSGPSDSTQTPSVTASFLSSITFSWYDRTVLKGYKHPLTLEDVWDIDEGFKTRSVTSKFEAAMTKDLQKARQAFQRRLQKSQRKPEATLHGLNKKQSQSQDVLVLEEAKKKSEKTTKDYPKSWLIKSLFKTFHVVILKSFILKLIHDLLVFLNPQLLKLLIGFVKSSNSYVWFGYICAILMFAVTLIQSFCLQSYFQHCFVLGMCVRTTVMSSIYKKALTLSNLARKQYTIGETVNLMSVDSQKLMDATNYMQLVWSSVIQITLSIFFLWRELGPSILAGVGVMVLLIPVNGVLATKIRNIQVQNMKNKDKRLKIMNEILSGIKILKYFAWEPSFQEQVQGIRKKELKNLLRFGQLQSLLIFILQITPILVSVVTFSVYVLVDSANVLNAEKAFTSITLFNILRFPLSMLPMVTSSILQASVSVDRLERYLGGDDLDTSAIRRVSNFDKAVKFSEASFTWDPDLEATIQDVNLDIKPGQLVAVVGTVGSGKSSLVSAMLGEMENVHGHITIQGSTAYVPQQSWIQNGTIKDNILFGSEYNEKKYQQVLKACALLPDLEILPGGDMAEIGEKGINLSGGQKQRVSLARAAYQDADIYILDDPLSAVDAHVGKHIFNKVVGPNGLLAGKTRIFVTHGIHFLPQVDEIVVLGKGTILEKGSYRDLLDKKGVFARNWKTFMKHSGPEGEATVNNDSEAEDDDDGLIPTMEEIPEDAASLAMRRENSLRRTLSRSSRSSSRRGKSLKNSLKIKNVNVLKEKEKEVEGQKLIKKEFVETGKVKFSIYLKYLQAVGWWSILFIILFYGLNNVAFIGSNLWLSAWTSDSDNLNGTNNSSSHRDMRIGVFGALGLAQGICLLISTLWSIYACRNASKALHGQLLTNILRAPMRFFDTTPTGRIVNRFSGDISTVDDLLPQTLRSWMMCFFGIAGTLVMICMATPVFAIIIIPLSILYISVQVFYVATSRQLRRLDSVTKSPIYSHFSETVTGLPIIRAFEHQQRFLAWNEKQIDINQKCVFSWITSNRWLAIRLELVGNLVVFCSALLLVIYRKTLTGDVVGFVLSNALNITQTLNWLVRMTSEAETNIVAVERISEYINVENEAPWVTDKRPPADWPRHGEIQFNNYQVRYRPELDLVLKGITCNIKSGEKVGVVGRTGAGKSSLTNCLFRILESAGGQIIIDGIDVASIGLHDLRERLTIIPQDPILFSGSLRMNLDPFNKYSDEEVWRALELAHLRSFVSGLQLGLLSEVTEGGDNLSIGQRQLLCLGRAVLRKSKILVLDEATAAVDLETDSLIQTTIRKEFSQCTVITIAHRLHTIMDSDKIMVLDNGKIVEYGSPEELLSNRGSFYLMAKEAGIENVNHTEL
T3 sequence (Q92887 whole entry): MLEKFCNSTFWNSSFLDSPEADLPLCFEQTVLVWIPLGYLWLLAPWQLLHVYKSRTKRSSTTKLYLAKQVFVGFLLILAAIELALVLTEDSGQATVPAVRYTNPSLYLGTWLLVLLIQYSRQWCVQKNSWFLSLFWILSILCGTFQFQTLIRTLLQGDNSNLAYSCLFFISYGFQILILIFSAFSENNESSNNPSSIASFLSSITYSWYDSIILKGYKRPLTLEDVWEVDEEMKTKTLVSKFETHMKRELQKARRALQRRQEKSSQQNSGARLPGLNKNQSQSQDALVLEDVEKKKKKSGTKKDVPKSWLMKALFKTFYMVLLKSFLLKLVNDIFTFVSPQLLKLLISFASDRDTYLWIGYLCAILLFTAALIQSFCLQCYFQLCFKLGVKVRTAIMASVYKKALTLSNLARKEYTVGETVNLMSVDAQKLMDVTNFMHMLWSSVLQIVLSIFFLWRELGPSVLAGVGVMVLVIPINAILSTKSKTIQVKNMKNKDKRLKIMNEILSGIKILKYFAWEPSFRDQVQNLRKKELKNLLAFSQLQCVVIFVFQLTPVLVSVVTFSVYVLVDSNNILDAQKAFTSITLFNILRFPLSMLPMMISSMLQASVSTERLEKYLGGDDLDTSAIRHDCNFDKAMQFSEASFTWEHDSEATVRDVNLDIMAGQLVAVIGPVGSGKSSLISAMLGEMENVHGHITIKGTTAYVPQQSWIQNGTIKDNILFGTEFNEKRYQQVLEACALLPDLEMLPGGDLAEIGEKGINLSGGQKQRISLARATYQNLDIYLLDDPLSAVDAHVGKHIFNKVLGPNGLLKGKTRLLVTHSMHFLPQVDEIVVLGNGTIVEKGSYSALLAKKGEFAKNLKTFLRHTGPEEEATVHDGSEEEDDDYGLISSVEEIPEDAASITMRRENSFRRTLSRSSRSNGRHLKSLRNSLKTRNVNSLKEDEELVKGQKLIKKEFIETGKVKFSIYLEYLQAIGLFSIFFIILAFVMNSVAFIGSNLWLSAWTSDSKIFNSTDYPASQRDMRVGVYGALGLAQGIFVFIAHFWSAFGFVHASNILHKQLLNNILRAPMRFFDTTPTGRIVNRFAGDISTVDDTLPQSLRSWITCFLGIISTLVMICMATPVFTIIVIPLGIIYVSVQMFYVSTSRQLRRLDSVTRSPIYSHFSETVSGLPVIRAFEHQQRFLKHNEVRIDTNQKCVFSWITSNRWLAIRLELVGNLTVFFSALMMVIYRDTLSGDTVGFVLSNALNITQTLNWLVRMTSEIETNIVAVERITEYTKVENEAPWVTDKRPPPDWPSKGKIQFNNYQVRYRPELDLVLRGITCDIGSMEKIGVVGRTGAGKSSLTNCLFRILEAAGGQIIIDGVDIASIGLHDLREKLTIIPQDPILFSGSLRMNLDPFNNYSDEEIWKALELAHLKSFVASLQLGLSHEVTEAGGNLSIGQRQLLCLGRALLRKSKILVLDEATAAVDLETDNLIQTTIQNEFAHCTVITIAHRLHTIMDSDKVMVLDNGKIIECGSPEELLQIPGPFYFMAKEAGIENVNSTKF

Uptake of uric acid in the presence of ATP versus AMP (hBCRP [1]): significantly higher | ATP-dependent uric acid uptake (rMrp2): Slight | ATP-dependent uric acid uptake (hMRP2): inactive | ATP-dependent uric acid uptake (hMDR1): inactive | Intestinal secretory clearance of endogenous uric acid ([2]; Bcrp1−/− mice): 0.61 ± 0.08 µL/min/cm | Renal clearance of endogenous uric acid ([2]; Bcrp1−/− mice): 16.0 ± 1.77 µL/min | Plasma uric acid level in Bcrp1−/− mice compared with wild-type mice ([2]; after oxonate treatment): much higher | Intestinal secretory clearance of endogenous uric acid ([2]; wild-type mice): 1.04 ± 0.11 µL/min/cm | Renal clearance of endogenous uric acid ([2]; wild-type mice): 23.5 ± 1.42 µL/min | efflux ratio at 120 min ([3]; Caco-2, pH 7.4, BL-to-AP / AP-to-BL permeability): 2.13 ± 0.19 | Papp A→B at 120 min ([3]; Caco-2 monolayer, 37°C, pH 7.4, read-out: Permeability AP to BL): 0.81 ± 0.02 ×10⁻⁶ cm/s | Papp B→A at 120 min ([3]; Caco-2 monolayer, 37°C, pH 7.4, read-out: Permeability BL to AP): 1.73 ± 0.11 ×10⁻⁶ cm/s
Compound: O=c1[nH]c(=O)c2[nH]c(=O)[nH]c2[nH]1 [uric acid]
Km (hBCRP [4]): 8.24 mM
